Experimental data: patent publication US20200016188A1, “MODIFICATION OF THE PH AND OTHER PHYSICAL PROPERTIES OF NICOTINAMIDE ADENINE DINUCLEOTIDE (OXIDIZED FORM) TO ALLOW FOR ENHANCED STABILITY AND MULTIPLE DELIVERY SYSTEMS” (priority 2018, published 2020)
“Also recorded” adds a separate entry of the source. Like-named read-outs stand apart in the source and are kept apart here. Blank lines part the entries; values can stand above or below the compound they belong to.

Assays:
[1] = pH testing of test substances (pH strips, probe and meter); type: physicochemical
Experimental: PH testing was done by using both pH testing strips and a probe and meter for each test substance to determine its pH. Each test substance was dissolved in 150 ml distilled water then tested for its pH value. Where the test substance could not be tested because it was not water soluble, an art-recognized pH was used.
PH testing was done by using both ph testing strips and a probe and meter for each test substance to determine its pH. Each test substance was dissolved in 150 ml distilled water then tested for its pH value.

[2] = not tested, cited from earlier work; for (pH): Table 6, too viscous
[3] = Two-week stability of compressed lozenge of NAD+ with a test substance, HPLC UV; settings: for Observation when the composition was made: NAD+ with test substance, HPLC data could not be obtained
Experimental: Preparations of nicotinamide adenine dinucleotide (oxidized form) were compounded. A compressed lozenge was created including 100 mg nicotinamide adenine dinucleotide (oxidized form) and 100 mg of a test substance. The powders were compressed in a tablet mold and released. Each test tablet was then placed in a white 75cc HDPE container that was sealed and removed from UV light for two weeks at room temperature.
After a two week period, the compositions were tested by performing an HPLC UV.

[4] = cited from earlier work
[5] = Table 5, test substance dissolved in 150 ml distilled water
[6] = anhydrous NAD+ with test substance, two weeks, HPLC UV versus NAD+ control

(pH) Value ([1]; summary of Table 6): neutral
Compound: OC[C@@H](O)[C@@H](O)[C@H](O)[C@@H](O)CO [70% Sorbitol, Sorbitol]
(pH) [2]: (pH) neutral

Compound: CCCCCCCCCCCCCCCC(=O)OC[C@H](O)[C@H]1OC(=O)C(O)=C1O [Ascorbyl palmitate]
pH range ([2]; Table 5, not water soluble, art-recognized pH): (pH) range 6.8-7.2

(pH) Value ([1]; Table 6, test substance in 150 ml distilled water): 6.9 | (pH) Value ([1]; summary of Table 6): neutral
Compound: OCc1ccccc1 [Benzyl alcohol]

Compound: O=P([O-])([O-])O.[Ca+2] [Calcium Phosphate Dibasic, Calcium phosphate dibasic]
(pH) Value [1, 5]: 8.5 | Degradation of NAD+ when formulated with the test substance by itself (words) [3, 6]: did not degrade the NAD+; also recorded: little to no degradation; also recorded: do not degrade NAD+ | Degradation of NAD+ when formulated with the test substance by itself (words) ([3]; anhydrous NAD+ with test substance, two weeks, HPLC UV versus NAD+ control, listed as CaHPO4): deemed effective

(pH) Value [1, 5]: 6.3
Compound: OC[C@@H](O)[C@@H](O)CO [Erythitol, Erythritol]

(pH) Value ([1]; summary of Table 6): neutral
Compound: OCC(O)CO [Glycerin]
(pH) [2]: (pH) neutral

Compound: [Mg+2].[OH-].[OH-] [Magnesium Hydroxide Mg(OH)2, Magnesium hydroxide]
Degradation of NAD+ when formulated with the test substance by itself (words) ([3]; anhydrous NAD+ with test substance, two weeks, HPLC UV versus NAD+ control, listed as Mg(OH)2): deemed effective | Degradation of NAD+ when formulated with the test substance by itself (words) ([3]; anhydrous NAD+ with test substance, two weeks, HPLC UV versus NAD+ control, listed as magnesium hydroxide): do not degrade NAD+; also recorded: provided for stable compositions of NAD+

Compound: [O]=[Mg] [Magnesium Oxide MgO, Magnesium oxide]
(pH) Value [1, 5]: 9.1 | Degradation of NAD+ when formulated with the test substance by itself (words) [3, 6]: cause degradation of the NAD+

Compound: O=C([O-])[O-].[Mg+2] [Magnesium carbonate MgCO2, Magnesium carbonate]
Degradation of NAD+ when formulated with the test substance by itself (words) [3, 6]: did not degrade the NAD+; also recorded: little to no degradation; also recorded: do not degrade NAD+

(pH) Value [1, 5]: 6.7
Compound: OC[C@@H](O)[C@@H](O)[C@H](O)[C@H](O)CO [Mannitol]

Compound: NC(=O)c1ccc[n+]([C@@H]2O[C@H](COP(=O)([O-])OP(=O)(O)OC[C@H]3O[C@@H](n4cnc5c(N)ncnc54)[C@H](O)[C@@H]3O)[C@@H](O)[C@H]2O)c1 [NAD+, nicotinamide adenine dinucleotide (oxidized form)]
Time NAD+ can be stable ([4]; aqueous solutions between pH 2-6, stored at −70° C.): up to 6 months | Time NAD+ is stable ([4]; fairly neutral aqueous solutions at 0° C.): up to 2 weeks | Time the stability of NAD+ will last ([4]; neutral or slightly acidic solutions stored at zero degrees Fahrenheit): up to 2 weeks

Compound: O=C([O-])O.[K+] [Potassium Bicarbonate K2CO2, Potassium bicarbonate]
Degradation of NAD+ when formulated with the test substance by itself (words) [3, 6]: cause degradation of the NAD+

Compound: [K+].[OH-] [Potassium Hydroxide KOH, Potassium hydroxide]
Observation when the composition was made [3]: bubbled, liquefied, turned yellow, and created heat | Degradation of NAD+ when formulated with the test substance by itself (words) [3, 6]: cause degradation of the NAD+

Compound: O=C([O-])O.[Na+] [Sodium Bicarbonate Na2CO2, Sodium bicarbonate]
Degradation of NAD+ when formulated with the test substance by itself (words) [3, 6]: showed degradation shortly after creation of the lozenge tablet; also recorded: cause degradation of the NAD+

Compound: [Cl-].[Na+] [Sodium Chloride NaCl, Sodium chloride]
Degradation of NAD+ when formulated with the test substance by itself (words) [3, 6]: positive results; also recorded: do not degrade NAD+

Compound: O=C1O[C@H]([C@@H](O)CO)C([O-])=C1O.[Na+] [Sodium ascorbate]
Degradation of NAD+ when formulated with the test substance by itself (words) [3, 6]: positive results | Degradation of NAD+ when formulated with the test substance by itself (words) ([3]; anhydrous NAD+ with test substance, two weeks, HPLC UV versus NAD+ control, listed as sodium ascorbate): do not degrade NAD+

Degradation of NAD+ when formulated with the test substance by itself (words) [3]: cause degradation of the NAD+
Compound: CCCCCCCCCCCCCCCCCC(=O)O [Stearic acid]

(pH) Value ([1]; summary of Table 6): neutral
Compound: CC(=O)Oc1c(C)c(C)c2c(c1C)CCC(C)(CCC[C@H](C)CCC[C@H](C)CCCC(C)C)O2 (some centres unmarked) [Tocopherol acetates, Tocopherol acetate]
(pH) [2]: (pH) neutral

(pH) Value [1, 5]: 6.5
Compound: OC[C@@H](O)[C@H](O)[C@@H](O)CO [Xylitol]

Compound: Magnesium stearate
Degradation of NAD+ when formulated with the test substance by itself (words) [3, 6]: cause degradation of the NAD+

(pH) Value ([1]; summary of Table 6): neutral
Compound: Polysorbate 80
(pH) [2]: (pH) neutral

Compound: Sodium hydroxide [Sodium Hydroxide NaOH]
Observation when the composition was made [3]: bubbled, liquefied, turned yellow, and created heat
